Assay results reported in paper PMC6120877, “Intriguing role of water in protein-ligand binding studied by neutron crystallography on trypsin complexes” (Nature Communications, 2018).

Experiments:
bovine trypsin = molecular target: T1, bovine trypsin (Bos taurus, UniProt P00760); test: Kinetic fluorescence enzyme inhibition assay, trypsin; assay type: biochemical; conditions: for Ki: fluorescence assay, D-Phe-Pro derivatives
T1 construct: purchased Worthington Biochemical Corporation LS003707
T1 sequence (P00760 24-246): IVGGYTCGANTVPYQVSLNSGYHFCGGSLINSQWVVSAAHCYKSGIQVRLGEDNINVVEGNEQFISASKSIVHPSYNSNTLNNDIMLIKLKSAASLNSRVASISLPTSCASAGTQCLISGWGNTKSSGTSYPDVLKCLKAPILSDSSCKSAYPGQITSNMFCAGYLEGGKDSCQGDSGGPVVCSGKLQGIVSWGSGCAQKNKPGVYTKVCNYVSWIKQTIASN
Protocol: Following the same approach as used in an earlier study, kinetic data were obtained in black 96-well plates using a Fluoroskan Ascent fluorometer (Thermo Fisher Scientific, Vantaa/Finland; λex = 355 nm, λem = 460 nm). The assay was performed at room temperature in a buffer composed of 43 mM Tris pH 7.8, 132 mM NaCl and 0.0086 % (w/v) PEG 8000. The final trypsin concentration was 65 pM. […] The D-Phe-Pro analogs were dissolved in DMSO and further diluted in buffer to yield a final DMSO concentration in the assay well below 1% (v/v). Mes-d-Arg-Gly-Arg-AMC (Mes = mesyl; AMC = […]) available from a previous study was used as the substrate. […] The uninhibited trypsin-catalyzed reaction was investigated in parallel at the three substrate concentrations 6.3, 12.5, and 25 µM. […] For this purpose, a non-linear fit to the Michaelis-Menten equation modified for reversible competitive inhibitors was used.

human thrombin = molecular target: T2, human thrombin (Homo sapiens, UniProt P00734); test: Kinetic fluorescence enzyme inhibition assay, thrombin; assay type: biochemical; conditions: D-Phe-Pro derivatives
T2 construct: The analogous assay was applied to human thrombin, which was kindly provided by CSL Behring; purchased CSL Behring

bovine β-trypsin [1] = molecular target: T3, bovine β-trypsin (Bos taurus, UniProt P00760); test: Direct ITC titration, trypsin; assay type: binding; conditions: for number of protons transferred from the buffer onto trypsin upon complex formation (slope of interpolation function): ∆H° vs. buffer ionization enthalpy, three buffers
T3 construct: dialyzing a solution of bovine β-trypsin (Sigma Aldrich, product number T8003); purchased Sigma Aldrich T8003
T3 sequence (P00760 24-246): T1 sequence (P00760 24-246)
Protocol: To determine dissociation constants for trypsin:inhibitor complexes, two different isothermal titration calorimetry (ITC) titration protocols were used. […] Protein samples were prepared by dialyzing a solution of bovine β-trypsin (Sigma Aldrich, product number T8003) against a buffer composed of 80 mM NaCl, 10 mM CaCl2, 0.1 % (w/v) PEG 8000 and 100 mM HEPES, Tricine or Tris at a pH of 7.6 and a temperature of 4 °C while ligands were dissolved in buffer. […] Titrations were performed in three different buffer systems to enable the correction for any proton transfer occurring between buffer and protein upon complex formation. For this purpose, the obtained ∆H° values were plotted against the ionization enthalpy of the used buffer yielding a buffer-corrected enthalpy as the intercept (for more details see footnote b in Supplementary Tables 2 and 3). […] Applying the same protocol and data analysis scheme as used in an earlier study, ITC titrations were performed on an ITC200 device (GE Healthcare) at 25 °C with a reference power of 5 µcal s^−1. The ITC protocol consisted of an initial 0.3 µl volume injection and of 20–25 injections with a volume between 1.5 and 1.8 µl separated by a 220 s time interval. For data analysis, the method described by Turnbull et al. was applied.

bovine β-trypsin [2] = molecular target: T3, bovine β-trypsin; test: Displacement ITC titration, trypsin (displacement ligand compound 2); assay type: binding; conditions: HEPES
Protocol: Sample preparations, measurements and data analyses were performed using the same approach as for our earlier study, which is described in the following. […] ITC data were collected using an ITC200 device (GE Healthcare) at 25 °C with a reference power of 5 µcal s^−1. An initial 0.3 µl volume injection was followed by 19 injections with a volume of 1.9 µl.

[3] = buffer-corrected (average over three buffers), 3% (v/v) DMSO
[4] = buffer-corrected (difference between ∆G° and ∆H°), 3% (v/v) DMSO
[5] = buffer-corrected (intercept at ionization enthalpy 0), 3% (v/v) DMSO
[6] = direct titration, HEPES, 3% (v/v) DMSO
[7] = direct titration, Tricine, 3% (v/v) DMSO
[8] = direct titration, Tris, 3% (v/v) DMSO

SMILES	Ki (bovine trypsin)	Kd (bovine β-trypsin [1]; [3])	∆G° (bovine β-trypsin [1]; [3])	–T∆S° (bovine β-trypsin [1]; [4])	∆H° (bovine β-trypsin [1]; [5])	Kd (bovine β-trypsin [1]; [6])	–T∆S° (bovine β-trypsin [1]; [6])	∆G° (bovine β-trypsin [1]; [6])	∆H° (bovine β-trypsin [1]; [6])	Kd (bovine β-trypsin [1]; [7])	–T∆S° (bovine β-trypsin [1]; [7])	∆G° (bovine β-trypsin [1]; [7])	∆H° (bovine β-trypsin [1]; [7])	Kd (bovine β-trypsin [1]; [8])	–T∆S° (bovine β-trypsin [1]; [8])	∆G° (bovine β-trypsin [1]; [8])	∆H° (bovine β-trypsin [1]; [8])	number of protons transferred from the buffer onto trypsin upon complex formation (slope of interpolation function) (bovine β-trypsin [1]; 3% (v/v) DMSO)	further results
N=C(N)N1CCC(CNC(=O)[C@@H]2CCCN2C(=O)[C@H](N)Cc2ccccc2)CC1.O=C(O)C(F)(F)F.O=C(O)C(F)(F)F [Compound 1]	1960 ± 264 nM	3600 nM	-31.1 kJ/mol	-9.3 kJ/mol	-21.8 kJ/mol	3700 ± 200 nM	-11.6 ± 0.3 kJ/mol	-31.0 ± 0.2 kJ/mol	-19.4 ± 0.3 kJ/mol	3300 ± 300 nM	-13.2 ± 0.5 kJ/mol	-31.3 ± 0.2 kJ/mol	-18.1 ± 0.5 kJ/mol	3700 ± 600 nM	-14.7 ± 0.7 kJ/mol	-31.0 ± 0.4 kJ/mol	-16.3 ± 0.6 kJ/mol	0.12	Ki (human thrombin): 4.51 ± 0.25 nM
N=C(N)c1ccccc1 [Benzamidine, benzamidine]																			stronger inhibition of trypsin than N-amidinopiperidine (bovine trypsin; benzamidine vs. N-amidinopiperidine): about 10 fold; –T∆S° (bovine β-trypsin [2]): -10.2 ± 0.9 kJ/mol; ∆G° (bovine β-trypsin [2]): -26.4 ± 0.6 kJ/mol; ∆H° (bovine β-trypsin [2]): -16.1 ± 0.7 kJ/mol; –T∆S° (bovine β-trypsin [1]; direct titration, HEPES): -15.0 ± 0.3 kJ/mol; ∆G° (bovine β-trypsin [1]; direct titration, HEPES): -26.7 ± 0.3 kJ/mol; ∆H° (bovine β-trypsin [1]; direct titration, HEPES): -11.7 ± 0.1 kJ/mol; –T∆S° (bovine β-trypsin [1]; direct titration, Tricine): -10.6 ± 0.6 kJ/mol; ∆G° (bovine β-trypsin [1]; direct titration, Tricine): -26.5 ± 0.04 kJ/mol; ∆H° (bovine β-trypsin [1]; direct titration, Tricine): -15.9 ± 0.6 kJ/mol; –T∆S° (bovine β-trypsin [1]; direct titration, Tris): -6.6 ± 0.4 kJ/mol; ∆G° (bovine β-trypsin [1]; direct titration, Tris): -26.5 ± 0.03 kJ/mol; ∆H° (bovine β-trypsin [1]; direct titration, Tris): -19.9 ± 0.4 kJ/mol; ∆G° (bovine β-trypsin [1]; direct titration, buffer-corrected (average over three buffers)): -26.6 kJ/mol; –T∆S° (bovine β-trypsin [1]; direct titration, buffer-corrected (difference between ∆G° and ∆H°)): -21.0 kJ/mol; ∆H° (bovine β-trypsin [1]; direct titration, buffer-corrected (intercept at ionization enthalpy 0)): -5.6 kJ/mol; number of protons transferred from the buffer onto trypsin upon complex formation (slope of interpolation function) (bovine β-trypsin [1]): -0.31
N=C(N)c1ccc(CNC(=O)[C@@H]2CCCN2C(=O)[C@H](N)Cc2ccccc2)cc1 [Compound 2]	15.2 ± 0.2 nM	34 nM	-42.6 kJ/mol	-4.4 kJ/mol	-38.2 kJ/mol	38 ± 7 nM	-6.9 ± 0.8 kJ/mol	-42.4 ± 0.4 kJ/mol	-35.5 ± 0.7 kJ/mol	34 ± 3 nM	-11.0 ± 0.4 kJ/mol	-42.6 ± 0.2 kJ/mol	-31.6 ± 0.4 kJ/mol	31 ± 5 nM	-12.0 ± 0.6 kJ/mol	-42.8 ± 0.4 kJ/mol	-30.9 ± 0.4 kJ/mol	0.17	
